By Ki is commonly meant the equilibrium dissociation constant of an inhibitor or competing ligand from its target. A low value points to higher affinity. The Km is the concentration of substrate that gives half-maximal velocity. The kcat is the maximal rate divided by the concentration of active sites.

Series [1] deals with T1, cytosolic AtPGI (Arabidopsis thaliana, UniProt P34795).
T1 sequence (P34795 1-560): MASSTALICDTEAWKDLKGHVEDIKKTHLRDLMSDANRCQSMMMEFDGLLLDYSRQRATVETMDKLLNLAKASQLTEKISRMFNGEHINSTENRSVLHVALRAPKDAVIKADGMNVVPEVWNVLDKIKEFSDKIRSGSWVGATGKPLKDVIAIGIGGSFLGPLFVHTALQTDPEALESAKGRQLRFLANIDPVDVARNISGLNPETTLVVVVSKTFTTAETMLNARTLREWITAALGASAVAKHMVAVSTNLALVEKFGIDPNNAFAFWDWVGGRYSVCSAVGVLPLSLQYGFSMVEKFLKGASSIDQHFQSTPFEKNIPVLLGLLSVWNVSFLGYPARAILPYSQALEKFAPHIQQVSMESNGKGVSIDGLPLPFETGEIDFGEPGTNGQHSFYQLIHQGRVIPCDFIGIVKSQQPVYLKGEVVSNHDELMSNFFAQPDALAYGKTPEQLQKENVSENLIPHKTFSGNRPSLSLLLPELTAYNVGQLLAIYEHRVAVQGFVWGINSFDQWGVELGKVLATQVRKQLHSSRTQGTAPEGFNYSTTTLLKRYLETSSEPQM
Kind of series: biochemical.

The target of series [2] is T2, plastidic AtPGI (Arabidopsis thaliana, UniProt Q8H103).
T2 sequence (Q8H103 49-613): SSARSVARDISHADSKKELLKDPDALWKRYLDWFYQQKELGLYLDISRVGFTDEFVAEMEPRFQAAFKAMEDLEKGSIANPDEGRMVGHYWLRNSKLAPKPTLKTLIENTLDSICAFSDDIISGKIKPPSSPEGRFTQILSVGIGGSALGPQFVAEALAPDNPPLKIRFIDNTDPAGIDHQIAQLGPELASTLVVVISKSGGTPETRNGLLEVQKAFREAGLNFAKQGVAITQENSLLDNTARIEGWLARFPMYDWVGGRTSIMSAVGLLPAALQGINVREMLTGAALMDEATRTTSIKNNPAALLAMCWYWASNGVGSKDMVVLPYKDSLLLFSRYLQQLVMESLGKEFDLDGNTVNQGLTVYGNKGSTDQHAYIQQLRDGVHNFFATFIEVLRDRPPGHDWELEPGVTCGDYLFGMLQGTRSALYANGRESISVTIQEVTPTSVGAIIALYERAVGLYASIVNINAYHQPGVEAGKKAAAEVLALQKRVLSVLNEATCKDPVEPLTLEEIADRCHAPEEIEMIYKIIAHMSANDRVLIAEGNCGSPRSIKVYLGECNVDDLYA
Kind of series: coupled spectrophotometric assay. It counts as biochemical.

Series [3] concerns the target T1, cytosolic AtPGI. Kind of series: coupled spectrophotometric assay. It is filed as biochemical.
Series [4] addresses T3, AtG6PDH3 (Arabidopsis thaliana, UniProt Q8L743).
T3 sequence (Q8L743 1-599 limits assumed): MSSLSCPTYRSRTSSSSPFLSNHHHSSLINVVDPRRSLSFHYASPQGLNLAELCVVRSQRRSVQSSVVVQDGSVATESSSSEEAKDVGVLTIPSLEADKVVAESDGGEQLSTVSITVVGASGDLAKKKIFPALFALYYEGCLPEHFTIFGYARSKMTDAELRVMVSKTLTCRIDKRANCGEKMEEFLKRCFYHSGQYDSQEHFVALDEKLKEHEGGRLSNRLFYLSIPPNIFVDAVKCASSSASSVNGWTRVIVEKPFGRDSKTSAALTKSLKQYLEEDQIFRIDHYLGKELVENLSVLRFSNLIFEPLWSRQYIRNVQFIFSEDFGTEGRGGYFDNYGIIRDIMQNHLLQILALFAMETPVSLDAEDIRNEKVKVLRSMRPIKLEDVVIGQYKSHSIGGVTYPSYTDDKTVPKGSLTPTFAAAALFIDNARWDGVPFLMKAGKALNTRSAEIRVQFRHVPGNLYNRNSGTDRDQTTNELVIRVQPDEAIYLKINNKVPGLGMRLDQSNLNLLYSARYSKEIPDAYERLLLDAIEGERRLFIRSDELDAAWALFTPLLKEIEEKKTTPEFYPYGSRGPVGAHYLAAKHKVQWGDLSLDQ
Kind of series: spectrophotometric NADPH formation assay. It is filed as biochemical.

Series [5] has as its target T4, AtG6PDH2 (Arabidopsis thaliana, UniProt Q9FY99).
T4 sequence (Q9FY99 1-596 limits assumed): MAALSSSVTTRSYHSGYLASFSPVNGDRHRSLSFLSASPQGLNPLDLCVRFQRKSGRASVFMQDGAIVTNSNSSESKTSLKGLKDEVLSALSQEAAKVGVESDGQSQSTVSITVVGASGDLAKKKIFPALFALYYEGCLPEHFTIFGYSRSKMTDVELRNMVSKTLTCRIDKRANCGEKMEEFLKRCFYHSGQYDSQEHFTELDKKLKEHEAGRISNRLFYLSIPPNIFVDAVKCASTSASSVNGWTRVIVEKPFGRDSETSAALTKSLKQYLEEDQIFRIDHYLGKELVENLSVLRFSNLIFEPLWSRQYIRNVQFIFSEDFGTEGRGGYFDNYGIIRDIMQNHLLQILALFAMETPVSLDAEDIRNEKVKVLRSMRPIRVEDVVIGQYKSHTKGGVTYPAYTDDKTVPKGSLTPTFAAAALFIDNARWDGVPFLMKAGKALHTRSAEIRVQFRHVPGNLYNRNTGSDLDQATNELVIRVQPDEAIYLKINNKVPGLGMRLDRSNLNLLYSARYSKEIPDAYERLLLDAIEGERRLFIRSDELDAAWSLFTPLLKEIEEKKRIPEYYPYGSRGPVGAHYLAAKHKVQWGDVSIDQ
Kind of series: spectrophotometric NADPH formation assay. It counts as biochemical.

For series [6], the target named is T5, AtG6PDH1 (Arabidopsis thaliana, UniProt Q43727).
T5 sequence (Q43727 1-576 limits assumed): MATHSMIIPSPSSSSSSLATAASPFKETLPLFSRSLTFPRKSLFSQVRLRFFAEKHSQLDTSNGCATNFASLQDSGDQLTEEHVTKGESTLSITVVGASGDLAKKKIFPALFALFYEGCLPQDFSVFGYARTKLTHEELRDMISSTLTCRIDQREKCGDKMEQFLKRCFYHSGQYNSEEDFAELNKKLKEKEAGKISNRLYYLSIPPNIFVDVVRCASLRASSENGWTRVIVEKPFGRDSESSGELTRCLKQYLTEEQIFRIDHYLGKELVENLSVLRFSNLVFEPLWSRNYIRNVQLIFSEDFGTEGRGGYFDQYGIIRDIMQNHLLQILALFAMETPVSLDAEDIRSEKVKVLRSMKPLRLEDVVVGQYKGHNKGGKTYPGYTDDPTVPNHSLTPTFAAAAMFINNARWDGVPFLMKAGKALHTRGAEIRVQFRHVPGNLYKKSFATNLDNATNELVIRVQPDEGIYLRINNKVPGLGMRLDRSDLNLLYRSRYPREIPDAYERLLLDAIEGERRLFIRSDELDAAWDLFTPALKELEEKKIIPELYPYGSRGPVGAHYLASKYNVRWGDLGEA
The series can be described thus: spectrophotometric NADPH formation assay. It is filed as biochemical.

In series [7] the target is T2, plastidic AtPGI. Kind of series: biochemical.
Series [8] has as its target T4, AtG6PDH2. Kind of series: spectrophotometric NADPH formation assay. It is filed as biochemical. The following applies: substrate inhibition; 0.6 mM NADP+; 150 mM Hepes pH 7.2.
The target in series [9] is T3, AtG6PDH3. Kind of series: spectrophotometric NADPH formation assay. It counts as biochemical. The settings on record: substrate inhibition; 0.6 mM NADP+; 150 mM Hepes pH 7.2.
The target in series [10] is T5, AtG6PDH1. The series can be described thus: spectrophotometric NADPH formation assay. It counts as biochemical. The settings on record: substrate inhibition; 0.6 mM NADP+; 150 mM Hepes pH 7.2.
Substrate in series [11]: NC(=O)c1ccc[n+]([C@@H]2O[C@H](COP(=O)(O)OP(=O)(O)OC[C@H]3O[C@@H](n4cnc5c(N)ncnc54)[C@H](OP(=O)(O)O)[C@@H]3O)[C@@H](O)[C@H]2O)c1
Kind of series: purified protein. The settings on record: 150 mM Hepes pH 7.2, varied: cofactor.

For `O=C(O)[C@H](O)[C@@H](O)[C@H](O)[C@H](O)COP(=O)(O)O` [6-phosphogluconic acid], the inhibition constant Ki in series [1] was 44 µM; in series [2], 31 µM; in series [3], 106 µM.
As for `NC(=O)C1=CN([C@@H]2O[C@H](COP(=O)(O)OP(=O)(O)OC[C@H]3O[C@@H](n4cnc5c(N)ncnc54)[C@H](OP(=O)(O)O)[C@@H]3O)[C@@H](O)[C@H]2O)C=CC1` [NADPH], the inhibition constant Ki was determined as 112 µM in series [4], 0.9 µM in series [5] and 59 µM in series [6].
With `O=C[C@H](O)[C@H](O)COP(=O)(O)O` [erythrose 4-phosphate], the Ki in series [1] was 3.7 µM; in series [7], 6 µM; in series [2], 2.3 µM; in [3], 1.5 µM.
For the molecule `O=P(O)(O)OC[C@H]1OC(O)[C@H](O)[C@@H](O)[C@@H]1O` (stereo partly shown) [glucose 6-phosphate], the “G6P Ki” value was 30000 µM in series [8], 37000 µM in series [9] and 18900 µM in [10].

B1: AtG6PDH3 (Arabidopsis thaliana) (protein)
chain: MSSLSCPTYRSRTSSSSPFLSNHHHSSLINVVDPRRSLSFHYASPQGLNLAELCVVRSQRRSVQSSVVVQDGSVATESSSSEEAKDVGVLTIPSLEADKVVAESDGGEQLSTVSITVVGASGDLAKKKIFPALFALYYEGCLPEHFTIFGYARSKMTDAELRVMVSKTLTCRIDKRANCGEKMEEFLKRCFYHSGQYDSQEHFVALDEKLKEHEGGRLSNRLFYLSIPPNIFVDAVKCASSSASSVNGWTRVIVEKPFGRDSKTSAALTKSLKQYLEEDQIFRIDHYLGKELVENLSVLRFSNLIFEPLWSRQYIRNVQFIFSEDFGTEGRGGYFDNYGIIRDIMQNHLLQILALFAMETPVSLDAEDIRNEKVKVLRSMRPIKLEDVVIGQYKSHSIGGVTYPSYTDDKTVPKGSLTPTFAAAALFIDNARWDGVPFLMKAGKALNTRSAEIRVQFRHVPGNLYNRNSGTDRDQTTNELVIRVQPDEAIYLKINNKVPGLGMRLDQSNLNLLYSARYSKEIPDAYERLLLDAIEGERRLFIRSDELDAAWALFTPLLKEIEEKKTTPEFYPYGSRGPVGAHYLAAKHKVQWGDLSLDQ
As for B1, in [11] (7.6 mM G6P), the Km was 0.6 µM and the kcat came to 14.6 s⁻¹.

B2: AtG6PDH1 (Arabidopsis thaliana) (protein)
chain: MATHSMIIPSPSSSSSSLATAASPFKETLPLFSRSLTFPRKSLFSQVRLRFFAEKHSQLDTSNGCATNFASLQDSGDQLTEEHVTKGESTLSITVVGASGDLAKKKIFPALFALFYEGCLPQDFSVFGYARTKLTHEELRDMISSTLTCRIDQREKCGDKMEQFLKRCFYHSGQYNSEEDFAELNKKLKEKEAGKISNRLYYLSIPPNIFVDVVRCASLRASSENGWTRVIVEKPFGRDSESSGELTRCLKQYLTEEQIFRIDHYLGKELVENLSVLRFSNLVFEPLWSRNYIRNVQLIFSEDFGTEGRGGYFDQYGIIRDIMQNHLLQILALFAMETPVSLDAEDIRSEKVKVLRSMKPLRLEDVVVGQYKGHNKGGKTYPGYTDDPTVPNHSLTPTFAAAAMFINNARWDGVPFLMKAGKALHTRGAEIRVQFRHVPGNLYKKSFATNLDNATNELVIRVQPDEGIYLRINNKVPGLGMRLDRSDLNLLYRSRYPREIPDAYERLLLDAIEGERRLFIRSDELDAAWDLFTPALKELEEKKIIPELYPYGSRGPVGAHYLASKYNVRWGDLGEA
Take B2: in series [11] (7.6 mM G6P), the Michaelis constant (Km) worked out at 0.7 µM and the kcat stood at 57.0 s⁻¹.

B3: AtG6PDH2 (Arabidopsis thaliana) (protein)
chain: MAALSSSVTTRSYHSGYLASFSPVNGDRHRSLSFLSASPQGLNPLDLCVRFQRKSGRASVFMQDGAIVTNSNSSESKTSLKGLKDEVLSALSQEAAKVGVESDGQSQSTVSITVVGASGDLAKKKIFPALFALYYEGCLPEHFTIFGYSRSKMTDVELRNMVSKTLTCRIDKRANCGEKMEEFLKRCFYHSGQYDSQEHFTELDKKLKEHEAGRISNRLFYLSIPPNIFVDAVKCASTSASSVNGWTRVIVEKPFGRDSETSAALTKSLKQYLEEDQIFRIDHYLGKELVENLSVLRFSNLIFEPLWSRQYIRNVQFIFSEDFGTEGRGGYFDNYGIIRDIMQNHLLQILALFAMETPVSLDAEDIRNEKVKVLRSMRPIRVEDVVIGQYKSHTKGGVTYPAYTDDKTVPKGSLTPTFAAAALFIDNARWDGVPFLMKAGKALHTRSAEIRVQFRHVPGNLYNRNTGSDLDQATNELVIRVQPDEAIYLKINNKVPGLGMRLDRSNLNLLYSARYSKEIPDAYERLLLDAIEGERRLFIRSDELDAAWSLFTPLLKEIEEKKRIPEYYPYGSRGPVGAHYLAAKHKVQWGDVSIDQ
B3: in [11] (15.4 mM G6P), the Michaelis-Menten constant (Km) came out at 1.3 µM and the turnover number (kcat) stood at 39.4 s⁻¹.

The values are drawn from paper doi:10.1101/442434v2 (biorxiv, 2018).
